These molecules were tested against T1, glucokinase (GK) (Homo sapiens, UniProt P35557) (assay: enzymatic glucokinase activity assay (ATP consumption, KinaseGlo luminescence)). Conditions: recombinant GK residues 12-465; 5 μM ATP, 5 mM Glucose; Kact = concentration that displays 50% of the maximal increase in GK activity; read-out: pKact.
T1 construct: I.D. No. 1 corresponds to residues 12-465 of glucokinase; made in house; host or cells: E. coli DH10b-T1r
T1 sequence (P35557 with tags, fused parts or gaps isoform P35557-2): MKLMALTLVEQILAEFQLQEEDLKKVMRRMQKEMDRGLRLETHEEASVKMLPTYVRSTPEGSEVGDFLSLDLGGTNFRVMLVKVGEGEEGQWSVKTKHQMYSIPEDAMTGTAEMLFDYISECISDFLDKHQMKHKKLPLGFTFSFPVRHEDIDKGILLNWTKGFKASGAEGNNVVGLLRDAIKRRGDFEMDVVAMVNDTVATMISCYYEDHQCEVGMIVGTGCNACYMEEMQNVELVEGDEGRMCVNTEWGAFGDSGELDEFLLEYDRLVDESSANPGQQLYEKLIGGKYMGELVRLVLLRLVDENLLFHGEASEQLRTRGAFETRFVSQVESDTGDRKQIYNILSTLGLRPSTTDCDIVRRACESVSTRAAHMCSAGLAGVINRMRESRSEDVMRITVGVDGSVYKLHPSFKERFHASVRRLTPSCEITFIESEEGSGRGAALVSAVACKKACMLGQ
Format: biochemical
From the text: The activity of compounds as glucokinase activators may be assayed in vitro, in vivo or in a cell line. Provided below is an enzymatic glucokinase activity assay.
Purified glucokinase may be obtained as follows. […] SEQ.
The expression of recombinant glucokinase protein may be carried out by transformation and growth of DH10b-T1r E. coli cells incorporating the (pFLAG-CTC) plasmid in LB media. Protein expression can be induced in this system by the addition of IPTG to the culture medium.
Recombinant protein may be isolated from cellular extracts by passage over Sepharose Q Fast Flow resin (Pharmacia). This partially purified GK extract may then be further purified by a second passage over Poros HQ 10 (Applied Biosystems). The purity of GK may be determined on denaturing SDS-PAGE gel. Purified GK may then be concentrated to a final concentration of 20.0 mg/ml. After flash freezing in liquid nitrogen, the proteins can be stored at −78° C. in a buffer containing 25 mM TRIS-HCl pH 7.6, 50 mM NaCl, and 0.5 mM TCEP.
The activation properties of compounds for GK may be determined using a black 384-well-plate format under the following reaction conditions: 25 mM Hepes pH 7.2, 25 mM NaCl, 10 mM MgCl2, 0.01% Brij35, 1 mM DTT, 5 μM ATP, 5 mM Glucose 2% DMSO. The amount of ATP consumed may be determined quantitatively by addition of equal volume of luciferase reagent (luciferase+beetle luciferin—KinaseGlo Luminescent Kinase Assay kit from Promega). The luminescence intensity may be measured by using the Analyst HT from LJL Biosystems.
The reaction mixture may then be incubated at room temperature for 60 min, and quenched and developed by addition of 10 μL of luciferase reagent. Luminescence intensities of the resulting reaction mixtures may be measured after a 10 min incubation at room temperature. The luminescence intensity may be measured by using the Analyst HT from LJL Biosystems.
pKact values may be calculated by non-linear curve fitting of the compound concentrations and luminescence intensities to a standard inhibition/activation equation.

| EC50 [µM] | SMILES |
| --- | --- |
| 1.58 to 15.8 | Cc1cc(S(=O)(=O)C2CC2)cc(=O)n1C(CC1CCOCC1)C(=O)Nc1ncc(Cl)s1 (stereo not shown) [Example 157, N-(5-chlorothiazol-2-yl)-2-(4-(cyclopropylsulfonyl)-6-methyl-2-oxopyridin-1(2H)-yl)-3-(tetrahydro-2H-pyran-4-yl)propanamide] |
| 1.58 to 15.8 | N#Cc1cnc(NC(=O)[C@H](CC2CCOCC2)n2ccc(S(=O)(=O)C3CCCC3)cc2=O)s1 [Example 57, (S)-N-(5-cyanothiazol-2-yl)-2-(4-(cyclopentylsulfonyl)-2-oxopyridin-1(2H)-yl)-3-(tetrahydro-2H-pyran-4-yl)propanamide] |
| > 15.8 | Cc1cc(S(=O)(=O)C2CCCC2)cc(=O)n1[C@H](CC1CCOCC1)C(=O)Nc1ccc(C(N)=O)cn1 [Example 181, (R)-6-(2-(4-(cyclopentylsulfonyl)-6-methyl-2-oxopyridin-1(2H)-yl)-3-(tetrahydro-2H-pyran-4-yl)propanamido)nicotinamide] |
| > 15.8 | Cc1cc(S(=O)(=O)C2CC2)cc(=O)n1[C@H](CC1CCCC1)C(=O)Nc1ncc(F)s1 [Example 163, (R)-3-cyclopentyl-2-(4-(cyclopropylsulfonyl)-6-methyl-2-oxopyridin-1(2H)-yl)-N-(5-fluorothiazol-2-yl)propanamide] |
| 1.58 to 15.8 | Cc1cc(S(=O)(=O)C2CC2)c(N)c(=O)n1[C@H](CC1CCCC1)C(=O)Nc1ncc(F)s1 [Example 154, (R)-2-(3-amino-4-(cyclopropylsulfonyl)-6-methyl-2-oxopyridin-1(2H)-yl)-3-cyclopentyl-N-(5-fluorothiazol-2-yl)propanamide] |
| 1.58 to 15.8 | Cc1cc(S(=O)(=O)c2cc(Cl)sc2Cl)cc(=O)n1C(CC1CCOCC1)C(=O)Nc1ncc(Cl)s1 (stereo not shown) [Example 119, N-(5-chlorothiazol-2-yl)-2-(4-(2,5-dichlorothiophen-3-ylsulfonyl)-6-methyl-2-oxopyridin-1(2H)-yl)-3-(tetrahydro-2H-pyran-4-yl)propanamide] |

Further lines, the molecule ahead of its results:

| SMILES | EC50 [µM] |
| --- | --- |
| O=C(Nc1cnccn1)[C@@H](CC1CCOCC1)n1ccc(S(=O)(=O)C2CC2)cc1=O [Example 69, (R)-2-(4-(cyclopropylsulfonyl)-2-oxopyridin-1(2H)-yl)-N-(pyrazin-2-yl)-3-(tetrahydro-2H-pyran-4-yl)propanamide] | > 15.8 |
| Cc1cc(N2CCCC2)cc(=O)n1C(CC1CCCCC1)C(=O)Nc1nccs1 (stereo not shown) [Example 87, 3-cyclohexyl-2-(6-methyl-2-oxo-4-(pyrrolidin-1-yl)pyridin-1(2H)-yl)-N-(thiazol-2-yl)propanamide] | > 15.8 |
| Cc1cc(-c2cccc(C#N)c2)cc(=O)n1[C@@H](CC1CCCCC1)C(=O)Nc1nccs1 [Example 97, (S)-2-(4-(3-cyanophenyl)-6-methyl-2-oxopyridin-1(2H)-yl)-3-cyclohexyl-N-(thiazol-2-yl)propanamide] | > 15.8 |
| Cn1ccc(NC(=O)[C@H](CC2CCOCC2)n2ccc(S(=O)(=O)C3CC3)cc2=O)n1 [Example 74, (S)-2-(4-(cyclopropylsulfonyl)-2-oxopyridin-1(2H)-yl)-N-(1-methyl-1H-pyrazol-3-yl)-3-(tetrahydro-2H-pyran-4-yl)propanamide] | 1.58 to 15.8 |
| Cc1cc(-c2csc3ccccc23)cc(=O)n1[C@@H](CC1CCCCC1)C(=O)Nc1nccs1 [Example 107, (S)-2-(4-(benzo[b]thiophen-3-yl)-6-methyl-2-oxopyridin-1(2H)-yl)-3-cyclohexyl-N-(thiazol-2-yl)propanamide] | > 15.8 |
| O=C(Nc1ncc(Cl)s1)C(CC1CCOCC1)n1cc(S(=O)(=O)N2CCCC2)ccc1=O (stereo not shown) [Example 140, N-(5-chlorothiazol-2-yl)-2-(2-oxo-5-(pyrrolidin-1ylsulfonyl)pyridin-1(2H)-yl)-3-(tetrahydro-2H-pyran-4-yl)propanamide] | 1.58 to 15.8 |
| Cc1cc(-c2cccnc2)cc(=O)n1[C@@H](CC1CCCCC1)C(=O)Nc1nccs1 [Example 100, (S)-3-cyclohexyl-2-(6-methyl-2-oxo-4-(pyridin-3-yl)pyridin-1(2H)-yl)-N-(thiazol-2-yl)propanamide] | 1.58 to 15.8 |
